Broadly, the Ki is the dissociation constant of the complex between target and ligand, obtained from inhibition or displacement.

Where a SMILES comes first, the peptide text is derived from it.

The target of assay [1] is Pancreatic elastase (Sus scrofa) (UniProt P08419+P00772). The experiment in a line: Inhibition constant for uncompetitive inhibition of Suc-AAPA and Pancreatic elastase. The assay is classed as protein assay.
The target of assay [2] is T1, Neutrophil elastase (Homo sapiens, UniProt P08246).
T1 sequence (P08246 whole entry): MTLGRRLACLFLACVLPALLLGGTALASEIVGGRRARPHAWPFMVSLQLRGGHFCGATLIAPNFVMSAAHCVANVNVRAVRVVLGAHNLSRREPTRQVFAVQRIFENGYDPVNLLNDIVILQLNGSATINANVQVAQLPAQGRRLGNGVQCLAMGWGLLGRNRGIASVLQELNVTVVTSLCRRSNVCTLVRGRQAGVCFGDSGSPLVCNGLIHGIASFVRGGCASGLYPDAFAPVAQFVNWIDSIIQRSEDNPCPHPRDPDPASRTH
The assay is described as follows: Competitive inhibition constant against Human neutrophil elastase using the reporter substrate MeO-AAPV-pNa; NI means no inhibition.

Assay [3] concerns the target T2, Serine protease 1 (Homo sapiens, UniProt P07477).
Assay [4] has as its target T3, Chymotrypsinogen A (Bos taurus, UniProt P00766). The assay is described as follows: Competitive inhibition constant against Chymotrypsinogen using the reporter substrate Suc-AAPA-pNa; No inhibition.
In assay [5] the target is T3, Chymotrypsinogen A. The experiment in a line: Competitive inhibition constant against Chymotrypsinogen using the reporter substrate Suc-AAPA-pNa.
Assay [6] concerns the target T1, Neutrophil elastase. The experiment in a line: Competitive inhibition constant against Human neutrophil elastase using the reporter substrate MeO-AAPV-pNa.
For assay [7], the target named is T4, Chymotrypsin-like elastase family member 2A (Sus scrofa) (UniProt P08419).
T4 sequence (whole entry): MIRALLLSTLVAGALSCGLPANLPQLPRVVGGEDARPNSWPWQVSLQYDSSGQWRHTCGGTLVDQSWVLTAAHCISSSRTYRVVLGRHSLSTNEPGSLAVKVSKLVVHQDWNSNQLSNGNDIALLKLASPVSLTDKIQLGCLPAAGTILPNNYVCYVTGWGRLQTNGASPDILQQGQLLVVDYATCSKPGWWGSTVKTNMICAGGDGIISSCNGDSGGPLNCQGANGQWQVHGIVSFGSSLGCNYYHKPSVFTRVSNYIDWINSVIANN
Description: Peptide was tested for inhibition constant for competitive inhibition using Suc-AAPA-pNa and Pancreatic elastase

Assay [8] concerns the target T2, Serine protease 1. The assay is described as follows: Competitive inhibition constant against trypsin using the reporter substrate Ac-R-pNa.
Assay [9] deals with T5, Chymotrypsin-like elastase family member 2A (Sus scrofa, UniProt P08419).
T5 sequence (P08419 whole entry): T4 sequence (whole entry)
The experiment in a line: Peptide was tested for inhibition constant for uncompetitive inhibition using Suc-AAPA and Pancreatic elastase.

T2 sequence (P07477 whole entry): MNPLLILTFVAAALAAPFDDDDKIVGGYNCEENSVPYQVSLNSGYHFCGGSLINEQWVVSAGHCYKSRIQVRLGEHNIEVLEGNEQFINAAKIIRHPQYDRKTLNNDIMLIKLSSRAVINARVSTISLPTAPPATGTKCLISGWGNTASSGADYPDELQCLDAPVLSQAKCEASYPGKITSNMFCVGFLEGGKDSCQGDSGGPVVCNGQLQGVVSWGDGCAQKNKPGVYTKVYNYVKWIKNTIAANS
Chain of Pancreatic elastase (Sus scrofa) (P00772 whole entry, looked up, one chain of several): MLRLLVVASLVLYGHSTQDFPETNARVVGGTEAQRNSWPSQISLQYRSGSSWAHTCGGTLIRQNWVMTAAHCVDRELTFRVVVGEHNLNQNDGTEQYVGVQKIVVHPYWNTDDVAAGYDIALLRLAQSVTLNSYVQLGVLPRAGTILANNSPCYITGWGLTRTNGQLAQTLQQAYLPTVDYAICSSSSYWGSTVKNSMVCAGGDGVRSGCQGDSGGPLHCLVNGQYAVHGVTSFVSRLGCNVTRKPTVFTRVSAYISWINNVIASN

`CC[C@@H](C)[C@@H](NC(=O)[C@@H](C)NC(=O)[C@@H](CCC(=O)O)NC(=O)[C@@H](CC(C)C)NC(=O)[C@@H](Cc1ccccc1)NC(=O)[C@H](N)CCSC)C(=O)N1CCC[C@H]1C(=O)N[C@H](CCCCN)C(=O)O`: in [1], the Ki' is 640 µM. Moreover, the Ki result on Neutrophil elastase [2] is given as “Not Active”. `CSCC[C@@H](N)C(=O)N[C@H](Cc1ccccc1)C(=O)N[C@H](CC(C)C)C(=O)N[C@H](CCC(=O)O)C(=O)O` registered a Ki' in assay [1] of 370 µM. Also, the Ki result on Neutrophil elastase [2], on Serine protease 1 [3] and on Chymotrypsinogen A [4] was “Not Active” each time. Turning to `CC[C@H](C)[C@H](NC(=O)[C@H](C)NC(=O)[C@H](CCC(=O)O)NC(=O)[C@H](CC(C)C)NC(=O)[C@H](Cc1ccccc1)NC(=O)[C@@H](N)CCSC)C(=O)N1CCC[C@H]1C(=O)N[C@@H](CCSC)C(=O)N[C@@H](CO)C(=O)O`, the results for the Ki at Chymotrypsinogen A [5] and on Serine protease 1 [3] were 3100 µM and “Not Active”, respectively.

On to `CSCC[C@H](N)C(=O)N[C@@H](Cc1ccccc1)C(=O)N[C@@H](CC(C)C)C(=O)N[C@@H](C)C(=O)O` (H-MFLA-OH), for which the Ki' in assay [1] was found to be 890 µM.

As to `CC[C@@H](C)[C@@H](NC(=O)[C@@H](CC)NC(=O)[C@@H](CCC(=O)O)NC(=O)[C@@H](CC(C)C)NC(=O)[C@@H](Cc1ccccc1)NC(=O)[C@H](N)CCSC)C(=O)N1CCC[C@H]1C(=O)O`, the Ki' in assay [1] came to 220 µM. With `CC[C@@H](C)[C@H](NC(=O)[C@H](CO)NC(=O)[C@H](CCSC)NC(=O)[C@@H]1CCCN1C(=O)[C@H](NC(=O)[C@@H](C)NC(=O)[C@@H](CCC(=O)O)NC(=O)[C@@H](CC(C)C)NC(=O)[C@@H](Cc1ccccc1)NC(=O)[C@H](N)CCSC)[C@H](C)CC)C(=O)O`, the Ki on Neutrophil elastase [6] is 27 µM. In addition, in assay [1], the Ki' is 340 µM.

In assay [1], `CC[C@H](C)[C@H](NC(=O)[C@H](C)NC(=O)[C@H](CCC(=O)O)NC(=O)[C@H](CC(C)C)NC(=O)[C@@H](N)Cc1ccccc1)C(=O)N1CCC[C@@H]1C(=O)N[C@H](CCSC)C(=O)O` showed a Ki' of 530 µM.

Consider `CC[C@@H](C)[C@@H](NC(=O)[C@@H](C)NC(=O)[C@@H](CCC(=O)O)NC(=O)[C@@H](CC(C)C)NC(=O)[C@@H](Cc1ccccc1)NC(=O)[C@H](N)CCSC)C(=O)N1CCC[C@H]1C(=O)N[C@@H](CCSC)C(=O)N[C@@H](CO)C(=O)O`, for which affinity at Neutrophil elastase [6] was put at a Ki of 190 µM. Besides, the Ki' in assay [1] amounted to 1200 µM.

As to `CC(C)C[C@H](NC(=O)[C@@H](N)Cc1ccccc1)C(=O)N[C@@H](CCC(=O)O)C(=O)O` (H-Phe-Leu-Glu-OH), in assay [1], the Ki' came out at 1400 µM.

Consider `CC[C@@H](C)[C@@H](NC(=O)[C@@H](C)NC(=O)[C@@H](CCC(=O)O)NC(=O)[C@@H](CC(C)C)NC(C)=O)C(=O)N1CCC[C@H]1C(=O)N[C@@H](CCSC)C(=O)O`, for which the Ki' in assay [1] amounted to 890 µM. With `CC[C@@H](C)[C@@H](NC(=O)[C@@H](C)NC(=O)[C@@H](CCC(=O)O)NC(=O)[C@@H](CC(C)C)NC(=O)[C@@H](Cc1ccccc1)NC(=O)[C@H](N)CCSC)C(=O)N1CCC[C@H]1C(=O)N[C@@H](CCSC)C(=O)O`, the affinity on Neutrophil elastase [6], expressed as Ki, was 270 µM. Also, the Ki' in assay [1] was 440 µM; in assay [7], “No inhibition”. Compound H-MFLEAIPMSIPPE-OH gave a Ki on Chymotrypsinogen A [5] of 240 µM.

Turning to `CC[C@H](C)[C@H](NC(=O)[C@H](CO)NC(=O)[C@H](CCSC)NC(=O)[C@@H]1CCCN1C(=O)[C@@H](NC(=O)[C@H](C)NC(=O)[C@H](CCC(=O)O)NC(=O)[C@H](CC(C)C)NC(=O)[C@H](Cc1ccccc1)NC(=O)[C@@H](N)CCSC)[C@@H](C)CC)C(=O)O`, the Ki at Chymotrypsinogen A [5] is 160 µM; on Serine protease 1 [3], “Not Active”. With `CC[C@H](C)[C@H](NC(=O)[C@H](C)NC(=O)[C@H](CCC(=O)O)NC(=O)[C@H](CC(C)C)NC(=O)[C@H](Cc1ccccc1)NC(=O)[C@@H](N)CCSC)C(=O)N1CCC[C@H]1C(=O)N[C@@H](CCCCN)C(=O)O`, the inhibitory constant (Ki) at Serine protease 1 [8] was 540 µM; at Chymotrypsinogen A [4] it was “Not Active”. In the case of `CC[C@H](C)[C@H](NC(=O)[C@H](C)NC(=O)[C@H](CCC(=O)O)NC(=O)[C@H](CC(C)C)NC(=O)[C@H](Cc1ccccc1)NC(=O)[C@@H](N)CCSC)C(=O)N1CCC[C@H]1C(=O)N[C@@H](CCSC)C(=O)O`, the values for the Ki entry (in assay [9]; at Chymotrypsinogen A [5]; on Serine protease 1 [3]) were “No inhibition”, 2300 µM and “Not Active”, respectively.
